Measurements as given in ChEMBL document CHEMBL4177690, “(E)-3-(3,4,5-Trimethoxyphenyl)-1-(pyridin-4-yl)prop-2-en-1-one, a heterocyclic chalcone is a potent and selective CYP1A1 inhibitor and cancer chemopreventive agent” (Bioorg Med Chem Lett, 2017).

Assays:
Cytochrome P450 2A6 = target: T1, Cytochrome P450 2A6 (Homo sapiens, UniProt P11509); assay: Inhibition of human CYP2A6 expressed in yeast cells; type: ADME, cell-based
T1 sequence (P11509 whole entry): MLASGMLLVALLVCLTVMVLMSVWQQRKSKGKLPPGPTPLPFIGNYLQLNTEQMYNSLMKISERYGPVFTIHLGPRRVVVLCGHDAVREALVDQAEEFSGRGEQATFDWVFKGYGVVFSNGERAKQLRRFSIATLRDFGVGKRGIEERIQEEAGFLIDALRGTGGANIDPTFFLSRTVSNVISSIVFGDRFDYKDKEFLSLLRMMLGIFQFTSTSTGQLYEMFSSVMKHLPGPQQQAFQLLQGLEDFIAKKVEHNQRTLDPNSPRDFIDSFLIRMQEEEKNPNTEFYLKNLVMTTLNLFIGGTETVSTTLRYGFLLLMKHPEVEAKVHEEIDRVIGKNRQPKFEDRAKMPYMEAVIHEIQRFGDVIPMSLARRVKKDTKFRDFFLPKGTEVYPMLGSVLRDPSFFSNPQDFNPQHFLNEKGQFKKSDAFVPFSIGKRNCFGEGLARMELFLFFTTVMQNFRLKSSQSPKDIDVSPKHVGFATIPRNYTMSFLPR

Cytochrome P450 1A2 [1] = target: T2, Cytochrome P450 1A2 (Homo sapiens, UniProt P05177); assay: Inhibition of human CYP1A2 expressed in yeast microsomal membranes using 3-cyano-7-ethoxycoumarin as substrate measured after 10 mins by fluorescence assay; type: ADME, cell membranes, Microsomal Membrane
T2 sequence (P05177 whole entry): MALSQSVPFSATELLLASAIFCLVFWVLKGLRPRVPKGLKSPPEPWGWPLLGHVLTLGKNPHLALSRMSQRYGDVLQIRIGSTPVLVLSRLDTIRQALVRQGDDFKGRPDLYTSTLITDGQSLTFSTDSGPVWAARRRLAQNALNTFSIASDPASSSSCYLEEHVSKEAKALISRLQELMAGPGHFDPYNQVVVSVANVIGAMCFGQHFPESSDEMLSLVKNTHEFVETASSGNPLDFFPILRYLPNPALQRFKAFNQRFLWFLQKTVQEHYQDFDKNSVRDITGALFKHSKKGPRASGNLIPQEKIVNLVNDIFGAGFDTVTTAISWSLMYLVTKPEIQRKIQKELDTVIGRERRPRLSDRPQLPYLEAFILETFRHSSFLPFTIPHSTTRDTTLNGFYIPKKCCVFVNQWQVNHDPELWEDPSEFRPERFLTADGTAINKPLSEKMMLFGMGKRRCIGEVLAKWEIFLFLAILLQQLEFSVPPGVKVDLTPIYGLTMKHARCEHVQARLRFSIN

Cytochrome P450 1A1 [2] = target: T3, Cytochrome P450 1A1 (Homo sapiens, UniProt P04798); assay: Inhibition of recombinant human CYP1A1 expressed in HEK293 cells using 7-ethoxyresorufin as substrate pretreated for 30 mins followed by substrate addition measured for 60 mins by fluorescence assay; type: cell-based
T3 sequence (P04798 whole entry): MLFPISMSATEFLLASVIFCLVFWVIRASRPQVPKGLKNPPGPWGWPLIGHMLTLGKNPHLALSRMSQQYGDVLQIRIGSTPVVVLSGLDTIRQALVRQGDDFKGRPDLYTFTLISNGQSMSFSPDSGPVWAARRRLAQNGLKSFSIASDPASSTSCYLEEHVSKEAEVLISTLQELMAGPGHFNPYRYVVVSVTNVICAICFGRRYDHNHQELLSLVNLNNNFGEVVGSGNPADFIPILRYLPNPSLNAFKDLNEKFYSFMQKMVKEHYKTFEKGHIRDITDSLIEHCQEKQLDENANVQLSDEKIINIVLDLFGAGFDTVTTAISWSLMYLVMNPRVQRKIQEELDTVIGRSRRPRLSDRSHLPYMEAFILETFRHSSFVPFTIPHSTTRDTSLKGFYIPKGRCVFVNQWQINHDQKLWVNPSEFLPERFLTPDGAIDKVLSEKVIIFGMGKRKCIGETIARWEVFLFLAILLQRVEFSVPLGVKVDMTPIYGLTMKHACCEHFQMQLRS

Cytochrome P450 1A1 [3] = target: T3, Cytochrome P450 1A1; assay: Competitive inhibition of human CYP1A1 using 7-ethoxyresorufin as substrate
Homo sapiens [4] = species: Homo sapiens; assay: Selectivity ratio of IC50 for human CYP1A2 expressed in yeast microsomal membranes to IC50 for human CYP1A1 expressed in yeast microsomal membranes; type: cell membranes
Cytochrome P450 2C19 = Cytochrome P450 2C19 (Homo sapiens, UniProt P33261); assay: Inhibition of recombinant human CYP2C19 expressed in HEK293 cells using 3-cyano-7-ethoxycoumarin as substrate pretreated for 30 mins followed by substrate addition measured for 60 mins by fluorescence assay; type: ADME
Homo sapiens [5] = species: Homo sapiens; assay: Selectivity ratio of IC50 for recombinant human CYP3A4 to IC50 for recombinant human CYP1A1
Cytochrome P450 2C9 [6] = target: T4, Cytochrome P450 2C9 (Homo sapiens, UniProt P11712); assay: Inhibition of human CYP2C9 expressed in yeast microsomal membranes using 3-cyano-7-ethoxycoumarin as substrate measured after 10 mins by fluorescence assay; type: ADME, cell membranes, Microsomal Membrane
Cytochrome P450 3A4 = Cytochrome P450 3A4 (Homo sapiens, UniProt P08684); assay: Inhibition of recombinant human CYP3A4 expressed in HEK293 cells using dibenzylfluorescein as substrate pretreated for 30 mins followed by substrate addition measured for 60 mins by fluorescence assay; type: ADME
Cytochrome P450 1A2 [7] = target: T2, Cytochrome P450 1A2; assay: Inhibition of recombinant human CYP1A2 expressed in HEK293 cells using 3-cyano-7-ethoxycoumarin as substrate pretreated for 30 mins followed by substrate addition measured for 60 mins by fluorescence assay; type: ADME
Cytochrome P450 1A1 [8] = target: T3, Cytochrome P450 1A1; assay: Time-dependent inhibition of recombinant human CYP1A1 expressed in HEK293 cells using 7-ethoxyresorufin as substrate
Cytochrome P450 2C9 [9] = target: T4, Cytochrome P450 2C9; assay: Inhibition of recombinant human CYP2C9 expressed in HEK293 cells using 3-cyano-7-ethoxycoumarin as substrate pretreated for 30 mins followed by substrate addition measured for 60 mins by fluorescence assay; type: ADME
Cytochrome P450 2B6 = target: T5, Cytochrome P450 2B6 (Homo sapiens, UniProt P20813); assay: Inhibition of human CYP2B6 expressed in yeast cells; type: ADME, cell-based
T5 sequence (P20813 whole entry): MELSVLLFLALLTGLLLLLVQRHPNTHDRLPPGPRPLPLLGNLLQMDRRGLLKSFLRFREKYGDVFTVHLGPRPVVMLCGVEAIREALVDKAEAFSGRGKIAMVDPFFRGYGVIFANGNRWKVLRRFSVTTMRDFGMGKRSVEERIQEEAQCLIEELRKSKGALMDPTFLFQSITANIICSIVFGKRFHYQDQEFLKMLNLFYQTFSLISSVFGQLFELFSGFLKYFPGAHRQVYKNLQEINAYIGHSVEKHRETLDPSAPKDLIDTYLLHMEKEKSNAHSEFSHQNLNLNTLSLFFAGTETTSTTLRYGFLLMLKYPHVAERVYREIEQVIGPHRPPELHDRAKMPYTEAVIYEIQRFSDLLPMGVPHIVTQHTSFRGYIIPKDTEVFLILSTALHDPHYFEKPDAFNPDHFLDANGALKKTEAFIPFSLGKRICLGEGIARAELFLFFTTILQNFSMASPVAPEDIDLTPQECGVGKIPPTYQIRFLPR

Homo sapiens [10] = species: Homo sapiens; assay: Selectivity ratio of IC50 for recombinant human CYP1A2 expressed in HEK293 cells to IC50 for recombinant human CYP1A1 expressed in HEK293 cells; type: cell-based

T4 sequence (P11712 whole entry): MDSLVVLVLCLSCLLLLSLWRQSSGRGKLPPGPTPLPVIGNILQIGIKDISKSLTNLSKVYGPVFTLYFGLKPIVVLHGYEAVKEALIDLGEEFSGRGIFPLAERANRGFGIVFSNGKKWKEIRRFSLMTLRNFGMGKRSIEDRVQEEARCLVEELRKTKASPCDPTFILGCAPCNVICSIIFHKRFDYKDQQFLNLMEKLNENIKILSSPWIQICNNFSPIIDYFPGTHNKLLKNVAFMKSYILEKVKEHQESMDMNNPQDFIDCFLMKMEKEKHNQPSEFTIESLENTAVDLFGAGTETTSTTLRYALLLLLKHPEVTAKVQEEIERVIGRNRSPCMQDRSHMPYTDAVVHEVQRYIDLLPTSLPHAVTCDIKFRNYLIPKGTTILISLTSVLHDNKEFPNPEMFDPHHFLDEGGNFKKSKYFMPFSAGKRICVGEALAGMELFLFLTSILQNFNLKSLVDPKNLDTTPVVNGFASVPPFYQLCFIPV
Sequence of Cytochrome P450 2C19 (P33261 whole entry): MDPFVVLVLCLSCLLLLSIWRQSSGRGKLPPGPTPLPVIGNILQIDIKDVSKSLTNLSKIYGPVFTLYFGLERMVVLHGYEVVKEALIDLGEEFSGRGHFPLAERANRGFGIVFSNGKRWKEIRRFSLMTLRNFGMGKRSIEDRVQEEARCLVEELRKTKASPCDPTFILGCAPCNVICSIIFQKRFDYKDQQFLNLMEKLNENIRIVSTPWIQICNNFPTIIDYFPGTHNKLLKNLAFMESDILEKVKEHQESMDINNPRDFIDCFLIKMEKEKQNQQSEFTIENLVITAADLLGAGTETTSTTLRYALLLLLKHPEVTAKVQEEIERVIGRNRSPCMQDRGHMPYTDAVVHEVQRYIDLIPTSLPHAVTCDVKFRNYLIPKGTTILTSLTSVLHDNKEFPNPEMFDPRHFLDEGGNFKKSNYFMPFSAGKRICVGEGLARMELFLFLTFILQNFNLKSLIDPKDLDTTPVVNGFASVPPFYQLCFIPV
Sequence of Cytochrome P450 3A4 (P08684 whole entry): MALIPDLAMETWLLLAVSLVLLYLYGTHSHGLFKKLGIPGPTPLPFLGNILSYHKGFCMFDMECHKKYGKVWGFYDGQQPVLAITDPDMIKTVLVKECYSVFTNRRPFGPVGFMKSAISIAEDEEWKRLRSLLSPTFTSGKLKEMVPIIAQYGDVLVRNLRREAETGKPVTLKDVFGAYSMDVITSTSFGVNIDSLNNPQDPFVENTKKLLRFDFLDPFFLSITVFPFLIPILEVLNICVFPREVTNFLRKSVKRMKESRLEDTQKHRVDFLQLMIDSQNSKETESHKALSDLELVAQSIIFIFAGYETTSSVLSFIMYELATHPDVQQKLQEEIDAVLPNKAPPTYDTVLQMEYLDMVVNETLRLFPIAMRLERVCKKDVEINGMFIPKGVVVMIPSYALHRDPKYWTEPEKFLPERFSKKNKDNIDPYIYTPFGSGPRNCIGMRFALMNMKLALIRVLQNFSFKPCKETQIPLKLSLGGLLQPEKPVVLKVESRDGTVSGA

IC50 (Cytochrome P450 2A6): > 10 µM | IC50 (Cytochrome P450 1A2 [1]): 1.09 µM | IC50 (Cytochrome P450 1A1 [2]): 0.058 µM | Ki (Cytochrome P450 1A1 [3]): 0.28 µM | Ratio IC50 (Homo sapiens [4]): > 10 | IC50 (Cytochrome P450 2C19): > 10 µM | Ratio IC50 (Homo sapiens [5]): > 100 | IC50 (Cytochrome P450 2C9 [6]): > 20 µM | IC50 (Cytochrome P450 3A4): > 10 µM | IC50 (Cytochrome P450 1A2 [7]): 1.12 µM | TDI (Cytochrome P450 1A1 [8]): Not Active | IC50 (Cytochrome P450 2C9 [9]): > 10 µM | IC50 (Cytochrome P450 2B6): > 10 µM
SMILES: COc1cc(/C=C/C(=O)c2ccncc2)cc(OC)c1OC
Ratio IC50 (Homo sapiens [10]): < 10
